The NIST ThermoML archive (doi:10.1007/s10765-012-1371-1)

Experiments:
[1] = xn = mol fraction of the nth substance listed; details: 101 kPa, Liquid
[2] = 101 kPa, Liquid

COC(C)(C)C [2-methoxy-2-methylpropane] + CC(C)CCl
[1], x2 = 0
Details | viscosity [mPa·s]
283.15 K | 0.3897
288.15 K | 0.364
293.15 K | 0.3482
298.15 K | 0.3327
303.15 K | 0.3152
308.15 K | 0.2994
313.15 K | 0.2846

CC(C)CCl [1-chloro-2-methylpropane] + CCCCOCC
[1], x1 = 1
Details | viscosity [mPa·s]
283.15 K | 0.5155
288.15 K | 0.4833
293.15 K | 0.454
298.15 K | 0.4296
303.15 K | 0.4112
308.15 K | 0.3921
313.15 K | 0.3726

CCCCOCC [butyl ethyl ether]
[2]
Details | viscosity [mPa·s]
283.15 K | 0.4796
288.15 K | 0.4509
293.15 K | 0.4242
298.15 K | 0.399
303.15 K | 0.3756
308.15 K | 0.356
313.15 K | 0.3416

COC(C)(C)C [2-methoxy-2-methylpropane] + CCCCCl
[1], x2 = 0
Details | viscosity [mPa·s]
283.15 K | 0.3897
288.15 K | 0.364
293.15 K | 0.3482
298.15 K | 0.3327
303.15 K | 0.3152
308.15 K | 0.2994
313.15 K | 0.2846

CCC(C)Cl (configuration not stated) [2-chlorobutane]
[2]
Details | viscosity [mPa·s]
283.15 K | 0.4631
288.15 K | 0.4365
293.15 K | 0.4167
298.15 K | 0.3993
303.15 K | 0.38
308.15 K | 0.3615
313.15 K | 0.3443

CC(C)CCl [1-chloro-2-methylpropane]
[2]
Details | viscosity [mPa·s]
283.15 K | 0.5155
288.15 K | 0.4833
293.15 K | 0.454
298.15 K | 0.4296
303.15 K | 0.4112
308.15 K | 0.3921
313.15 K | 0.3726

COC(C)(C)C [2-methoxy-2-methylpropane]
[2]
Details | viscosity [mPa·s]
283.15 K | 0.3897
288.15 K | 0.364
293.15 K | 0.3482
298.15 K | 0.3327
303.15 K | 0.3152
308.15 K | 0.2994
313.15 K | 0.2846

COC(C)(C)C [2-methoxy-2-methylpropane] + CCC(C)Cl
[1], x2 = 0
Details | viscosity [mPa·s]
283.15 K | 0.3897
288.15 K | 0.364
293.15 K | 0.3482
298.15 K | 0.3327
303.15 K | 0.3152
308.15 K | 0.2994
313.15 K | 0.2846

CCCCCl [1-chlorobutane] + CCCCOCC
[1], x1 = 1
Details | viscosity [mPa·s]
283.15 K | 0.4993
288.15 K | 0.4701
293.15 K | 0.4433
298.15 K | 0.4214
303.15 K | 0.405
308.15 K | 0.3885
313.15 K | 0.3642

CCCCCl [1-chlorobutane]
[2]
Details | viscosity [mPa·s]
283.15 K | 0.4993
288.15 K | 0.4701
293.15 K | 0.4433
298.15 K | 0.4214
303.15 K | 0.405
308.15 K | 0.3885
313.15 K | 0.3642

CCC(C)Cl (configuration not stated) [2-chlorobutane] + CCCCOCC
[1], x1 = 1
Details | viscosity [mPa·s]
283.15 K | 0.4631
288.15 K | 0.4365
293.15 K | 0.4167
298.15 K | 0.3993
303.15 K | 0.38
308.15 K | 0.3615
313.15 K | 0.3443
